Measured values taken from patent US11541028B2, “Peptide pharmaceuticals for treatment of NASH and other disorders” (Mederis Diabetes LLC, priority 2018, dated 2023).
Where two headings read alike, the source gives them in different places.

How the values were obtained:
human GLP-1 receptor = biological target: T1, human GLP-1 receptor (Homo sapiens, UniProt P43220); assay: DiscoveRx LeadHunter cellular assay, cAMP stimulation, GLP-1 receptor in CHO cells; format: cell-based; settings: human GLP-1 receptor in CHO cells (DiscoveRx); read-out: EC50 cAMP GLP-1 R
T1 construct: host or cells: CHO cells
Description: (§1) A further series of cellular assays was carried out with standard cellular assays (DiscoveRx, LeadHunter assays) using readout of cAMP stimulation or arrestin activation. Compounds were weighed precisely in an amount of about 1 mg and shipped to DiscoveRx for dilution and assay.

human glucagon receptor = biological target: T2, human glucagon receptor (Homo sapiens, UniProt P47871); assay: DiscoveRx LeadHunter cellular assay, cAMP stimulation, glucagon receptor in CHO cells; format: cell-based
T2 construct: host or cells: CHO cells
T2 sequence (P47871 26-477): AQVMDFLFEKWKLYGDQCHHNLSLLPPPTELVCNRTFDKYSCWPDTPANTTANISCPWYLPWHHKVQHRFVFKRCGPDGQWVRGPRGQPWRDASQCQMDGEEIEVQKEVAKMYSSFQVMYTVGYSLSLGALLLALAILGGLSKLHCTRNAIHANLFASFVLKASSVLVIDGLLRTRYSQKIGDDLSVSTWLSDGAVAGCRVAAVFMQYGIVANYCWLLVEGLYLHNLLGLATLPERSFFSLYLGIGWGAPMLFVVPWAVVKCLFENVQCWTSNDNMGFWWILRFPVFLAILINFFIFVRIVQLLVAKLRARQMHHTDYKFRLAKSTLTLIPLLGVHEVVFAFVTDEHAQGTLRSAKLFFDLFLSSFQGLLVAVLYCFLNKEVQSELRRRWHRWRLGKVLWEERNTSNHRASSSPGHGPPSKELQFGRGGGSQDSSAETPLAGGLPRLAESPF
Description: as §1

T1 sequence (P43220 24-463): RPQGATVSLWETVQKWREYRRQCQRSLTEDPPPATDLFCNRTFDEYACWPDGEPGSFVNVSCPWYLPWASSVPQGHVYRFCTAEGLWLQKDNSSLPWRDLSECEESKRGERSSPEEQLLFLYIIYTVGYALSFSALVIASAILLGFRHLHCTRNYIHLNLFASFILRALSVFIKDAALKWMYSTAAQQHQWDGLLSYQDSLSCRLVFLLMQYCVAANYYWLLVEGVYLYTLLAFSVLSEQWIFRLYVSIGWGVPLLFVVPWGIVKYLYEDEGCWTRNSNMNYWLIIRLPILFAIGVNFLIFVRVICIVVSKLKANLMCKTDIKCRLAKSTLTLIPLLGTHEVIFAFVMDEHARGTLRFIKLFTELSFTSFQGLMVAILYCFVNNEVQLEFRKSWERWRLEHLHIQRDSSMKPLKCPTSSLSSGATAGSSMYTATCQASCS

Row | SMILES | EC50 (human GLP-1 receptor) [nM] | EC50 (human glucagon receptor) [nM] | EC50 (human glucagon receptor; read-out: EC50 cAMP Glucagon R, human glucagon receptor in CHO cells (DiscoveRx)) [nM]
1 | CCCCCCCCCCCCCCCCO[C@@H]1O[C@H](C(=O)NCCCC[C@H](N)C(=O)NCCCC[C@H](NC(=O)[C@@H](NC(=O)[C@H](Cc2ccccc2)NC(=O)[C@H](CCC(=O)O)NC(=O)[C@@H]2CCCCNC(=O)CC[C@H](NC(=O)[C@H](CC(=O)O)NC(=O)[C@H](CC(C)C)NC(=O)[C@H](Cc3ccc(O)cc3)NC(=O)[C@H](CCCCN)NC(=O)[C@H](CO)NC(=O)[C@H](Cc3ccc(O)cc3)NC(=O)[C@H](CC(=O)O)NC(=O)[C@H](CO)NC(=O)[C@@H](NC(=O)[C@H](Cc3ccccc3)NC(=O)[C@@H](NC(=O)CNC(=O)[C@H](CCC(N)=O)NC(=O)C(C)(C)NC(=O)[C@@H](N)Cc3c[nH]cn3)[C@@H](C)O)[C@@H](C)O)C(=O)N[C@@H](CCC(N)=O)C(=O)N[C@@H](C)C(=O)N[C@@H](C)C(=O)N2)[C@@H](C)CC)C(=O)N[C@@H](Cc2c[nH]c3ccccc23)C(=O)N[C@@H](CC(C)C)C(=O)N[C@@H](CC(C)C)C(=O)N[C@@H](CCC(N)=O)C(=O)N[C@H](C(N)=O)[C@@H](C)O)[C@@H](O)[C@H](O)[C@H]1O [EU-A1713] | 0.308 | 2.51 | 
2 | CCCCCCCCCCO[C@@H]1O[C@H](C(=O)N[C@@H](CCC(=O)NCCCC[C@H](NC(=O)[C@@H](NC(=O)[C@H](Cc2ccccc2)NC(=O)[C@H](CCC(=O)O)NC(=O)[C@@H]2CCCCNC(=O)CC[C@H](NC(=O)[C@H](CC(=O)O)NC(=O)[C@H](CC(C)C)NC(=O)[C@H](Cc3ccc(O)cc3)NC(=O)[C@H](CCCCN)NC(=O)[C@H](CO)NC(=O)[C@H](Cc3ccc(O)cc3)NC(=O)[C@H](CC(=O)O)NC(=O)[C@H](CO)NC(=O)[C@@H](NC(=O)[C@H](Cc3ccccc3)NC(=O)[C@@H](NC(=O)CNC(=O)[C@H](CCC(N)=O)NC(=O)C(C)(C)NC(=O)[C@@H](N)Cc3c[nH]cn3)[C@@H](C)O)[C@@H](C)O)C(=O)N[C@@H](CCC(N)=O)C(=O)N[C@@H](C)C(=O)N[C@@H](C)C(=O)N2)[C@@H](C)CC)C(=O)N[C@@H](Cc2c[nH]c3ccccc23)C(=O)N[C@@H](CC(C)C)C(=O)N[C@@H](CC(C)C)C(=O)N[C@@H](CCC(N)=O)C(=O)N[C@H](C(N)=O)[C@@H](C)O)C(=O)O)[C@@H](O)[C@H](O)[C@H]1O [EU-A1716] | 0.013 | 0.032 | 
3 | CCCCCCCCCCCCO[C@@H]1O[C@H](C(=O)N[C@@H](CCC(=O)NCCCC[C@H](NC(=O)[C@@H](NC(=O)[C@H](Cc2ccccc2)NC(=O)[C@H](CCC(=O)O)NC(=O)[C@@H]2CCCCNC(=O)CC[C@H](NC(=O)[C@H](CC(=O)O)NC(=O)[C@H](CC(C)C)NC(=O)[C@H](Cc3ccc(O)cc3)NC(=O)[C@H](CCCCN)NC(=O)[C@H](CO)NC(=O)[C@H](Cc3ccc(O)cc3)NC(=O)[C@H](CC(=O)O)NC(=O)[C@H](CO)NC(=O)[C@@H](NC(=O)[C@H](Cc3ccccc3)NC(=O)[C@@H](NC(=O)CNC(=O)[C@H](CCC(N)=O)NC(=O)C(C)(C)NC(=O)[C@@H](N)Cc3c[nH]cn3)[C@@H](C)O)[C@@H](C)O)C(=O)N[C@@H](CCC(N)=O)C(=O)N[C@@H](C)C(=O)N[C@@H](C)C(=O)N2)[C@@H](C)CC)C(=O)N[C@@H](Cc2c[nH]c3ccccc23)C(=O)N[C@@H](CC(C)C)C(=O)N[C@@H](CC(C)C)C(=O)N[C@@H](CCC(N)=O)C(=O)N[C@H](C(N)=O)[C@@H](C)O)C(=O)O)[C@@H](O)[C@H](O)[C@H]1O [EU-A1717] | 0.011 | 0.035 | 
4 | CCCCCCCCCCCCCCO[C@@H]1O[C@H](C(=O)N[C@@H](CCC(=O)NCCCC[C@H](NC(=O)[C@@H](NC(=O)[C@H](Cc2ccccc2)NC(=O)[C@H](CCC(=O)O)NC(=O)[C@@H]2CCCCNC(=O)CC[C@H](NC(=O)[C@H](CC(=O)O)NC(=O)[C@H](CC(C)C)NC(=O)[C@H](Cc3ccc(O)cc3)NC(=O)[C@H](CCCCN)NC(=O)[C@H](CO)NC(=O)[C@H](Cc3ccc(O)cc3)NC(=O)[C@H](CC(=O)O)NC(=O)[C@H](CO)NC(=O)[C@@H](NC(=O)[C@H](Cc3ccccc3)NC(=O)[C@@H](NC(=O)CNC(=O)[C@H](CCC(N)=O)NC(=O)C(C)(C)NC(=O)[C@@H](N)Cc3c[nH]cn3)[C@@H](C)O)[C@@H](C)O)C(=O)N[C@@H](CCC(N)=O)C(=O)N[C@@H](C)C(=O)N[C@@H](C)C(=O)N2)[C@@H](C)CC)C(=O)N[C@@H](Cc2c[nH]c3ccccc23)C(=O)N[C@@H](CC(C)C)C(=O)N[C@@H](CC(C)C)C(=O)N[C@@H](CCC(N)=O)C(=O)N[C@H](C(N)=O)[C@@H](C)O)C(=O)O)[C@@H](O)[C@H](O)[C@H]1O [EU-A1718] | 0.043 |  | 0.097
5 | CCCCCCCCCCCCCCCCO[C@@H]1O[C@H](C(=O)N[C@@H](CCC(=O)NCCCC[C@H](NC(=O)[C@@H](NC(=O)[C@H](Cc2ccccc2)NC(=O)[C@H](CCC(=O)O)NC(=O)[C@@H]2CCCCNC(=O)CC[C@H](NC(=O)[C@H](CC(=O)O)NC(=O)[C@H](CC(C)C)NC(=O)[C@H](Cc3ccc(O)cc3)NC(=O)[C@H](CCCCN)NC(=O)[C@H](CO)NC(=O)[C@H](Cc3ccc(O)cc3)NC(=O)[C@H](CC(=O)O)NC(=O)[C@H](CO)NC(=O)[C@@H](NC(=O)[C@H](Cc3ccccc3)NC(=O)[C@@H](NC(=O)CNC(=O)[C@H](CCC(N)=O)NC(=O)C(C)(C)NC(=O)[C@@H](N)Cc3c[nH]cn3)[C@@H](C)O)[C@@H](C)O)C(=O)N[C@@H](CCC(N)=O)C(=O)N[C@@H](C)C(=O)N[C@@H](C)C(=O)N2)[C@@H](C)CC)C(=O)N[C@@H](Cc2c[nH]c3ccccc23)C(=O)N[C@@H](CC(C)C)C(=O)N[C@@H](CC(C)C)C(=O)N[C@@H](CCC(N)=O)C(=O)N[C@H](C(N)=O)[C@@H](C)O)C(=O)O)[C@@H](O)[C@H](O)[C@H]1O [EU-A1719] | 0.095 | 0.746 | 
6 | CCCCCCCCCCO[C@@H]1O[C@H](C(=O)N[C@@H](CCC(=O)N[C@@H](CCC(=O)NCCCC[C@H](NC(=O)[C@@H](NC(=O)[C@H](Cc2ccccc2)NC(=O)[C@H](CCC(=O)O)NC(=O)[C@@H]2CCCCNC(=O)CC[C@H](NC(=O)[C@H](CC(=O)O)NC(=O)[C@H](CC(C)C)NC(=O)[C@H](Cc3ccc(O)cc3)NC(=O)[C@H](CCCCN)NC(=O)[C@H](CO)NC(=O)[C@H](Cc3ccc(O)cc3)NC(=O)[C@H](CC(=O)O)NC(=O)[C@H](CO)NC(=O)[C@@H](NC(=O)[C@H](Cc3ccccc3)NC(=O)[C@@H](NC(=O)CNC(=O)[C@H](CCC(N)=O)NC(=O)C(C)(C)NC(=O)[C@@H](N)Cc3c[nH]cn3)[C@@H](C)O)[C@@H](C)O)C(=O)N[C@@H](CCC(N)=O)C(=O)N[C@@H](C)C(=O)N[C@@H](C)C(=O)N2)[C@@H](C)CC)C(=O)N[C@@H](Cc2c[nH]c3ccccc23)C(=O)N[C@@H](CC(C)C)C(=O)N[C@@H](CC(C)C)C(=O)N[C@@H](CCC(N)=O)C(=O)N[C@H](C(N)=O)[C@@H](C)O)C(=O)O)C(=O)O)[C@@H](O)[C@H](O)[C@H]1O [EU-A1722] | 0.006 | 0.012 | 
